Where only a bound is given, the exact number is not on record here.

Assay [1] has as its system Monographella nivalis (Microdochium nivale). Briefly: Monographella nivalis (Microdochium nivale) / liquid culture (foot rot cereals). The format is cell-based. To be noted: PDB liquid culture, 24° C., growth inhibition determined photometrically 4-5 days after application, vs untreated control. On the procedure:
Example B5: Monographella nivalis (Microdochium nivale)/Liquid Culture (Foot Rot Cereals) Conidia of the fungus from cryogenic storage are directly mixed into nutrient broth (PDB potato dextrose broth). After placing a (DMSO) solution of test compound into a microtiter plate (96-well format), the nutrient broth containing the fungal spores is added. The test plates are incubated at 24° C. and the inhibition of growth is determined photometrically 4-5 days after application. […] […]-49, and P-50.

Assay [2] has as its system Mycosphaerella arachidis (Cercospora arachidicola). Briefly: Mycosphaerella arachidis (Cercospora arachidicola) / liquid culture (early leaf spot). The format is cell-based. To be noted: PDB liquid culture, 24° C., growth inhibition determined photometrically 4-5 days after application, vs untreated control. As for the experimental part: Example B6: Mycosphaerella arachidis (Cercospora arachidicola)/Liquid Culture (Early Leaf Spot) Conidia of the fungus from cryogenic storage are directly mixed into nutrient broth (PDB potato dextrose broth). After placing a (DMSO) solution of test compound into a microtiter plate (96-well format), the nutrient broth containing the fungal spores is added. The test plates are incubated at 24° C. and the inhibition of growth is determined photometrically 4-5 days after application. […] […]-44, and P-48.

In assay [3] the test system is Mycosphaerella graminicola (Septoria tritici). Briefly: Mycosphaerella graminicola (Septoria tritici) / liquid culture (Septoria blotch). The format is cell-based. To be noted: Zymoseptoria tritici, PDB liquid culture, 24° C., growth inhibition determined photometrically 4-5 days after application, vs untreated control. As for the experimental part:
Example B12: Mycosphaerella graminicola (Septoria tritici)/Liquid Culture (Septoria Blotch) Conidia of the fungus from cryogenic storage are directly mixed into nutrient broth (PDB potato dextrose broth). After placing a (DMSO) solution of test compound into a microtiter plate (96-well format), the nutrient broth containing the fungal spores is added. The test plates are incubated at 24° C. and the inhibition of growth is determined photometrically 4-5 days after application. […] […]-48, and P-49.

Assay [4] has as its system Glomerella lagenarium (Colletotrichum lagenarium). Kind of assay: Glomerella lagenarium (Colletotrichum lagenarium) / liquid culture (anthracnose). The format is cell-based. To be noted: Colletotrichum orbiculare, PDB liquid culture, 24° C., growth inhibition measured photometrically 3-4 days after application, vs untreated control. As for the experimental part: Example B2: Glomerella lagenarium (Colletotrichum lagenarium)/Liquid Culture (Anthracnose) Conidia of the fungus from cryogenic storage are directly mixed into nutrient broth (PDB potato dextrose broth). After placing a (DMSO) solution of test compound into a microtiter plate (96-well format), the nutrient broth containing the fungal spores is added. The test plates are incubated at 24° C. and the inhibition of growth is measured photometrically 3-4 days after application. […] […]-49, and P-50.

Assay [5] relates to Puccinia recondita f. sp. tritici. Briefly: Puccinia recondita f. sp. tritici / wheat / leaf disc preventative (brown rust). The format is in vivo. To be noted: foliar, wheat leaf segments cv. Kanzler, inoculated 1 day after application, assessed 7-9 days after application, vs untreated control. As for the experimental part: Example B8: Puccinia recondita f. sp. tritici/Wheat/Leaf Disc Preventative (Brown rust) Wheat leaf segments cv. Kanzler are placed on agar in multiwell plates (24-well format) and sprayed with the formulated test compound diluted in water. The leaf disks are inoculated with a spore suspension of the fungus 1 day after application. The inoculated leaf segments are incubated at 19° C. and 75% rh under a light regime of 12 h light/12 h darkness in a climate cabinet and the activity of a compound is assessed as percent disease control compared to untreated when an appropriate level of disease damage appears in untreated check leaf segments (7-9 days after application).

Assay [6] relates to Blumeria graminis f. sp. tritici (Erysiphe graminis f. sp. tritici). Briefly: Blumeria graminis f. sp. tritici / wheat / leaf disc preventative (powdery mildew on wheat). The format is in vivo. To be noted: foliar, wheat leaf segments cv. Kanzler, inoculated 1 day after application, assessed 6-8 days after application, vs untreated control. As for the experimental part: Example B3: Blumeria graminis f. sp. tritici (Erysiphe graminis f. so. tritici)/Wheat/Leaf Disc Preventative (Powdery Mildew on Wheat) Wheat leaf segments cv. Kanzler are placed on agar in a multiwell plate (24-well format) and sprayed with the formulated test compound diluted in water. The leaf disks are inoculated by shaking powdery mildew infected plants above the test plates 1 day after application. The inoculated leaf disks are incubated at 20°° C. and 60% rh under a light regime of 24 h darkness followed by 12 h light/12 h darkness in a climate chamber and the activity of a compound is assessed as percent disease control compared to untreated when an appropriate level of disease damage appears on untreated check leaf segments (6-8 days after application). […]-45, and P-50.

For a further assay, the system named is Alternaria solani. Briefly: Alternaria solani / tomato / leaf disc (early blight). The format is in vivo. To be noted: foliar, tomato leaf disks cv. Baby, inoculated 2 days after application, assessed 5-7 days after application, vs untreated control. As for the experimental part: Example B1: Alternaria solani/Tomato/Leaf Disc (Early Blight) Tomato leaf disks cv. Baby are placed on agar in multiwell plates (24-well format) and sprayed with the formulated test compound diluted in water. The leaf disks are inoculated with a spore suspension of the fungus 2 days after application. The inoculated leaf disks are incubated at 23° C./21° C. […] […]-43, and P-44.

Assay [7] deals with Magnaporthe grisea (Pyricularia oryzae). Briefly: whole plant or invertebrate. The format is in vivo. To be noted: foliar, read-out: control of Magnaporthe grisea.
The subject of assay [8] is Botryotinia fuckeliana (Botrytis cinerea). Kind of assay: Botryotinia fuckeliana (Botrytis cinerea) / liquid culture (gray mould). The format is cell-based. To be noted: 20 ppm; Vogels broth liquid culture, 24° C., growth inhibition determined photometrically 3-4 days after application; vs untreated control. As for the experimental part: Example B13: Botryotinia fucleliana (Botrytis cinerea)/Liquid Culture (Gray Mould) Conidia of the fungus from cryogenic storage are directly mixed into nutrient broth (Vogels broth). After placing a (DMSO) solution of test compound into a microtiler plate (96-well format), the nutrient broth containing the fungal spores is added. The test plates are incubated at 24° C. and the inhibition of growth is determined photometrically 3-4 days after application. […] P-25.

`COc1ncc(Nc2cc(F)cc(F)c2)nc1C(=O)NC(C)(C)C` [Compound P-38, N-tert-butyl-6-(3,5-difluoroanilino)-3-methoxy-pyrazine-2-carboxamide]: the inhibition of growth at 20 ppm in assay [1], in assay [2], in assay [3] and in [4] was at least 80% in each case. Moreover, the pest or weed control at 200 ppm (in [5]; in assay [6]; with Alternaria solani; in assay [7]) was at least 80% in each case.
For `COc1ncc(Nc2cc(F)cc(F)c2)nc1C(=O)NC1CCC1(C)C` (stereo not shown) [Compound P-43, 6-(3,5-difluoroanilino)-N-(2,2-dimethylcyclobutyl)-3-methoxy-pyrazine-2-carboxamide], the inhibition of growth at 20 ppm in assay [1], in assay [2], in assay [3] and in [4] was at least 80% each time. Also, the pest or weed control at 200 ppm (in assay [5]; in [6]; in the assay with Alternaria solani; in assay [7]) was at least 80% throughout.
With `COc1ncc(Nc2cc(F)cc(F)c2)nc1C(=O)NCC1(C)CCOC2(CCC2)C1` (stereo not shown) [Compound P-22, 6-(3,5-difluoroanilino)-3-methoxy-N-[(8-methyl-5-oxaspiro[3.5]nonan-8-yl)methyl]pyrazine-2-carboxamide], the inhibition of growth at 20 ppm in [1], in assay [2], in assay [3] and in assay [4] was at least 80% throughout. The pest or weed control at 200 ppm (in assay [5]; in [6]; with Alternaria solani; in assay [7]) was at least 80% throughout.
Consider `COc1ncc(Nc2cccc(F)c2)nc1C(=O)NC1CCC1(C)C` (stereo not shown) [Compound P-5, N-(2.2-dimethylcyclobutyl)-6-(3-fluoroanilino)-3-methoxy-pyrazine-2-carboxamide], for which the inhibition of growth at 20 ppm in assay [1], in assay [2], in assay [3] and in assay [4] was at least 80% throughout. Besides, the pest or weed control at 200 ppm (in assay [5]; in assay [6]; in the assay on Alternaria solani; in assay [7]) was at least 80% throughout.
Take `COc1ncc(Nc2cc(F)cc(F)c2)nc1C(=O)NCC1(C(F)(F)F)CC1` [Compound P-25, 6-(3,5-difluoroanilino)-3-methoxy-N-[[1-(trifluoromethyl)cyclopropyl]methyl] pyrazine-2-carboxamide]: the inhibition of growth at 20 ppm in [1], in assay [2], in [3] and in assay [4] was at least 80% in each case. For the same compound, in assay [8], the “control of Botryotinia fuckeliana” value was “at least 80%”. Also, the pest or weed control at 200 ppm (in [5]; in assay [6]; in the assay on Alternaria solani; in [7]) was at least 80% each time.
For the compound `COc1ncc(Nc2cc(F)cc(F)c2)nc1C(=O)NCC(C)(C)C` [Compound P-39, 6-(3,5-difluoroanilino)-N-(2,2-dimethylpropyl)-3-methoxy-pyrazine-2-carboxamide], the inhibition of growth at 20 ppm in [1], in assay [2], in assay [3] and in [4] was at least 80% each time. The pest or weed control at 200 ppm (in assay [5]; in [6]; in the assay on Alternaria solani; in [7]) was at least 80% throughout.
`COc1ncc(Nc2ccccc2)nc1C(=O)NC1CCC1(C)C` (stereo not shown) [Compound P-4, 6-anilino-N-(2,2-dimethylcyclobutyl)-3-methoxy-pyrazine-2-carboxamide]: the inhibition of growth at 20 ppm in assay [1], in [2], in assay [3] and in [4] was at least 80% each time. For the same compound, the pest or weed control at 200 ppm (in assay [5]; in assay [6]; in the assay with Alternaria solani) was at least 80% each time.
Consider `COc1ncc(Nc2cc(F)cc(F)c2)nc1C(=O)NC1COC2(CC2)C1` (stereo not shown) [Compound P-20, 6-(3,5-difluoroanilino)-3-methoxy-N-(4-oxaspiro[2.4]heptan-6-yl)pyrazine-2-carboxamide], for which the inhibition of growth at 20 ppm in [1], in assay [2], in assay [3] and in assay [4] was at least 80% each time. The pest or weed control at 200 ppm (in assay [5]; in [6]; in the assay on Alternaria solani; in assay [7]) was at least 80% throughout.

The inhibition of growth is how much of the control response was suppressed. A lower inhibition of growth goes with little suppression.

Source of the values: patent publication US12528778B2, “Microbiocidal derivatives” (SYNGENTA CROP PROTECTION AG, priority 2019, dated 2026).
